# From US20250025500A1, “PHOSPHATASE INHIBITORS AS NK CELLS MODULATORS FOR THE TREATMENT OF CANCER” (Kanyr Pharma Inc., priority 2021, published 2025)
# Test system: NK-92 cells against K-562 cells
# Experiment: NK-92 cytolytic assay against K-562 tumor target cells (flow cytometry)
# Format: cell-based, Human
# Experimental: Human NK cell line NK-92 was purchased from American Type Culture Collection (ATCC) and cultured in α-MEM Essential Medium (no ribonucleoside and deoxyribonucleoside) supplemented with 0.2 mM Myo-inositol, 0.02 mM Folic Acid, 0.1 mM β-mercaptoethanol, 1% of Non-essential Amino Acids, 1×L-Glutamax, 1% of Penicillin/Streptomycin, 12.5% of heat-inactivated Horse, and 12.5% of heat-inactivated Characterized Fetal Bovine Serum or FBS. The media was supplemented freshly with 200 IU/mL of IL-2 upon cell thawing for one passage and 100 IU/mL of IL-2 for cell expansion. Human tumor cell lines K-562 and Reh were purchased from ATCC and were cultured in RPM11640 Medium supplemented with 1% of Penicillin/Streptomycin and 10% of heat inactivated FBS. HEK293T/17 cells and HCT116 cells were cultured in Dulbecco's Modified Eagle's Medium (DMEM) High Glucose Medium supplemented with 1% of Penicillin/Streptomycin and 10% of FBS. All cell lines were maintained in 5% CO2, 37° C. incubator, except that NK-92 were maintained in 6.5% CO2 incubator at 37° C. All cell lines were maintained below 30 passages and tested regularly for mycoplasma infection using PCR.
# NK-92 anti-tumor cytolysis function was assessed by flow cytometry-based analysis. Tumor target cells K-562 and Reh were labelled with cell tracker CFSE ([…]) or CMRA (5 μM) according to manufacturer's protocol at a maximum of one day before cytolysis experiment. On the experiment day, labelled tumor target cells were washed once with PBS and resuspend to desired cell concentration in complete cell media. NK-92 cells were washed and resuspended in complete media without cytokines to desired cell concentration. NK-92 cells and tumor target cells were plated at various effector: target (E:T) ratios with basal cell numbers at 50,000 cells per well in round-bottom 96-well plate and were co-cultured for 3 hours in 5% CO2, 37° C. incubator. After co-culture, cells were washed once with ice-cold PBS and stained with fixable viability dyes: Aqua (Invitrogen™) or UV Blue (Invitrogen™) or eFluor 780 (eBioscience Invitrogen™) at 1:2000 in dark for 20 mins at 4° C. Stained cells were washed twice with ice cold PBS and were fixed with 1% Paraformaldehyde (PFA) for 1 hour or 2% PFA for 30 mins in dark at 4° C. Flow cytometry sample acquisition was performed with BDO LSRFortessa™ with a UV laser at Flow Cytometry Core Facility, McGill University, and data was analyzed with FlowJo™ 10.7.1 and summarized with Prism™ 9 (GraphPad™). Calculation for % of specific cytolysis was followed by the equation: […]
substance,measurement,setting,value
7-bromo-6-phosphono(difluoro-methyl)-3-napthalenonitrile [L598],"NK-92 cytolysis against K-562 in presence of TGF-β1, vs vehicle control","10 μM with TGF-β 10 ng/mL, IL-2 media, three days",continued exhibiting enhanced anti-tumor cytolysis
same,cytolysis against K-562 after re-treatment,additional two-days treatment at same concentration,once more improved the anti-tumor cytolysis function to a similar level of the initial treatment
same,tumor cytolysis by NK-92 against K-562 with inhibitor titration,"dosage increased up to 90 μM, three days, various E:T ratios",gradual increasing of tumor cytolysis
same,enhanced cytolysis against K-562 after inhibitor withdrawal,withdrawn for three days after initial 30 μM treatment,reversible
